Patent US20230019236A1, “PROTEIN TYROSINE PHOSPHATASE INHIBITORS AND METHODS OF USE THEREOF” (Calico Life Sciences LLC, priority 2019, published 2023)

molecular target: T1, His tagged full-length PTP1B protein (Homo sapiens, UniProt P18031); assay: Mobility Shift Assay (MSA) used to determine potency of PTP1B inhibitors; type: biochemical; conditions: Table 2
T1 construct: made in house
T1 sequence (P18031 with tags, fused parts or gaps): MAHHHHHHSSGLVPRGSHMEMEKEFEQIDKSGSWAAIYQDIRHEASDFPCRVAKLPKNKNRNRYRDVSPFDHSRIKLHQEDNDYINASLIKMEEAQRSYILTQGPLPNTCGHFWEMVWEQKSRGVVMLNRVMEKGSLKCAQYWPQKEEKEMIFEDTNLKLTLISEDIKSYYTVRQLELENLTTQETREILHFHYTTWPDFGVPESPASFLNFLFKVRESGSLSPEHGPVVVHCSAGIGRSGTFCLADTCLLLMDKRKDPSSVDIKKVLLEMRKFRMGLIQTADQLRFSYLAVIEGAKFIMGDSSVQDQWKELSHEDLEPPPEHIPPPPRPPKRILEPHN
Procedure: The enzymatic assay used to determine activity is a mobility shift assay using a LabChip EZ Reader by Caliper Life Sciences. The enzymatic reaction was carried out in assay buffer (50 mM HEPES pH 7.5, 1 mM EGTA, 10 mM EDTA, 0.01% Tween® 20, and 2 mM DTT). […] The enzyme (at 0.5 nM) was incubated with compound for 10 minutes at room temperature. […] The % inhibition was then used to calculate the IC50 values.

Compound | IC50 [nM]
CCP(=O)(CC)CCCOc1ccc2cc(O)c(N3CC(=O)NS3(=O)=O)c(F)c2c1 [Compound 146, 5-{7-[3-(diethylphosphoryl)propoxy]-1-fluoro-3-hydroxynaphthalen-2-yl}-1λ^6,2,5-thiadiazolidine-1,1,3-trione] | 1 to 10
O=C1CN(c2c(O)cc3ccc(NCCc4ccccc4)cc3c2F)S(=O)(=O)N1 [Compound 164, 5-{1-fluoro-3-hydroxy-7-[(2-phenylethyl)amino]naphthalen-2-yl}-1λ^6,2,5-thiadiazolidine-1,1,3-trione] | > 100
O=C1CN(c2c(O)cc3ccc(C(=O)NCC4CC4)cc3c2F)S(=O)(=O)N1 [Compound 136, N-(cyclopropylmethyl)-8-fluoro-6-hydroxy-7-(1,1,4-trioxo-1λ^6,2,5-thiadiazolidin-2-yl)naphthalene-2-carboxamide] | 10 to 100
O=C1CN(c2c(O)cc3ccc(NCCN4CCC4)cc3c2F)S(=O)(=O)N1 [Compound 177, 5-(7-{[2-(azetidin-1-yl)ethyl]amino}-1-fluoro-3-hydroxynaphthalen-2-yl)-1λ^6,2,5-thiadiazolidine-1,1,3-trione] | > 100
O=C1CN(c2c(O)cc3ccc(OCCC(F)(F)F)cc3c2F)S(=O)(=O)N1 [Compound 180, 5-[1-fluoro-3-hydroxy-7-(3,3,3-trifluoropropoxy)naphthalen-2-yl]-1λ^6,2,5-thiadiazolidine-1,1,3-trione] | 10 to 100
CC(C)(C)OCCOc1ccc2cc(O)c(N3CC(=O)NS3(=O)=O)c(F)c2c1 [Compound 217, 5-[7-(2-tert-butoxyethoxy)-1-fluoro-3-hydroxynaphthalen-2-yl]-1λ^6,2,5-thiadiazolidine-1,1,3-trione] | 1 to 10
O=C1CN(c2c(O)cc3ccc(OCc4cn[nH]c4)cc3c2F)S(=O)(=O)N1 [Compound 133, 5-{1-fluoro-3-hydroxy-7-[(1H-pyrazol-4-yl)methoxy]naphthalen-2-yl}-1λ6,2,5-thiadiazolidine-1,1,3-trione] | 1 to 10
N#CC1(CCOc2ccc3cc(O)c(N4CC(=O)NS4(=O)=O)c(F)c3c2)CC1 [Compound 159, 1-(2-{[8-fluoro-6-hydroxy-7-(1,1,4-trioxo-1λ^6,2,5-thiadiazolidin-2-yl)naphthalen-2-yl]oxy}ethyl)cyclopropane-1-carbonitrile] | 1 to 10
CC(C)(N)CCOc1ccc2cc(O)c(N3CC(=O)NS3(=O)=O)c(F)c2c1 [Compound 165, 5-[7-(3-amino-3-methylbutoxy)-1-fluoro-3-hydroxynaphthalen-2-yl]-1λ^6,2,5-thiadiazolidine-1,1,3-trione] | 1 to 10
COCCNc1ccc2cc(O)c(N3CC(=O)NS3(=O)=O)c(F)c2c1 [Compound 179, 5-{1-fluoro-3-hydroxy-7-[(2-methoxyethyl)amino]naphthalen-2-yl}-1λ^6,2,5-thiadiazolidine-1,1,3-trione] | > 100
[2H]C([2H])([2H])Oc1ccc2cc(O)c(N3CC(=O)NS3(=O)=O)c(F)c2c1 [Compound 118, 5-{1-fluoro-3-hydroxy-7-[(2H3)methyloxy]naphthalen-2-yl}-1λ^6,2,5-thiadiazolidine-1,1,3-trione] | 1 to 10
O=C1CN(c2c(O)cc3ccc(OCCCC(F)(F)F)cc3c2F)S(=O)(=O)N1 [Compound 158, 5-[1-fluoro-3-hydroxy-7-(4,4,4-trifluorobutoxy)naphthalen-2-yl]-1λ^6,2,5-thiadiazolidine-1,1,3-trione] | 1 to 10
[2H]c1c(O)c(N2C([2H])([2H])C(=O)NS2(=O)=O)c(F)c2cc(OC)ccc12 [Compound 106, 5-[1-fluoro-3-hydroxy-7-methoxy(4-^2H)naphthalen-2-yl](4,4-2H2)-1λ^6,2,5-thiadiazolidine-1,1,3-trione] | 1 to 10
O=C1CN(c2c(O)cc3ccc(NCCNS(=O)(=O)C4CC4)cc3c2F)S(=O)(=O)N1 [Compound 125, N-(2-{[8-fluoro-6-hydroxy-7-(1,1,4-trioxo-1λ^6,2,5-thiadiazolidin-2-yl)naphthalen-2-yl]amino}ethyl)cyclopropanesulfonamide] | 10 to 100

Now from value to compound:

IC50 [nM] | Compound
10 to 100 | O=C1CN(c2c(O)cc3ccc(OCC(=O)N4CCCC4)cc3c2F)S(=O)(=O)N1 [Compound 283, 5-{1-fluoro-3-hydroxy-7-[2-oxo-2-(pyrrolidin-1-yl)ethoxy]naphthalen-2-yl}-1λ^6,2,5-thiadiazolidine-1,1,3-trione]
> 100 | CS(=O)(=O)N1CCC(Nc2ccc3cc(O)c(N4CC(=O)NS4(=O)=O)c(F)c3c2)CC1 [Compound 305, 5-(1-fluoro-3-hydroxy-7-{[1-(methanesulfonyl)piperidin-4-yl]amino}naphthalen-2-yl)-1λ^6,2,5-thiadiazolidine-1,1,3-trione]
10 to 100 | CCN(CC)C(=O)COc1ccc2cc(O)c(N3CC(=O)NS3(=O)=O)c(F)c2c1 [Compound 282, N,N-diethyl-2-{[8-fluoro-6-hydroxy-7-(1,1,4-trioxo-1λ^6,2,5-thiadiazolidin-2-yl)naphthalen-2-yl]oxy}acetamide]
> 100 | O=C1CN(c2c(O)cc3ccc(OCC4CCOCC4)cc3c2F)S(=O)(=O)N1 [Compound 273, 5-{1-fluoro-3-hydroxy-7-[(oxan-4-yl)methoxy]naphthalen-2-yl}-1λ^6,2,5-thiadiazolidine-1,1,3-trione]
1 to 10 | CCOCCCOc1ccc2cc(O)c(N3CC(=O)NS3(=O)=O)c(F)c2c1 [Compound 216, 5-[7-(3-ethoxypropoxy)-1-fluoro-3-hydroxynaphthalen-2-yl]-1λ^6,2,5-thiadiazolidine-1,1,3-trione]
> 100 | O=C1CN(c2c(O)cc3ccc(OCCO)cc3c2F)S(=O)(=O)N1 [Compound 277, 5-[1-fluoro-3-hydroxy-7-(2-hydroxyethoxy)naphthalen-2-yl]-1λ^6,2,5-thiadiazolidine-1,1,3-trione]
1 to 10 | Nc1ccc(CS(=O)(=O)N2CC=C(c3ccc4cc(O)c(N5CC(=O)NS5(=O)=O)c(F)c4c3)C2)cc1 [Compound 184, 5-(7-{1-[(4-aminophenyl)methanesulfonyl]-2,5-dihydro-1H-pyrrol-3-yl}-1-fluoro-3-hydroxynaphthalen-2-yl)-1λ^6,2,5-thiadiazolidine-1,1,3-trione]
< 1 | CC(C)CS(=O)(=O)N1CC=C(c2ccc3cc(O)c(N4CC(=O)NS4(=O)=O)c(F)c3c2)C1 [Compound 300, 5-{1-fluoro-3-hydroxy-7-[1-(2-methylpropane-1-sulfonyl)-2,5-dihydro-1H-pyrrol-3-yl]naphthalen-2-yl}-1λ^6,2,5-thiadiazolidine-1,1,3-trione]
10 to 100 | Cc1c[nH]c(-c2ccc3cc(O)c(N4CC(=O)NS4(=O)=O)c(F)c3c2)n1 [Compound 225, 5-[1-fluoro-3-hydroxy-7-(4-methyl-1H-imidazol-2-yl)naphthalen-2-yl]-1λ^6,2,5-thiadiazolidine-1,1,3-trione]
1 to 10 | O=C1CN(c2c(O)cc3ccc(C4CN(C(=O)C5CC5)C4)cc3c2F)S(=O)(=O)N1 [Compound 207, 5-{7-[1-(cyclopropanecarbonyl)azetidin-3-yl]-1-fluoro-3-hydroxynaphthalen-2-yl}-1λ^6,2,5-thiadiazolidine-1,1,3-trione]
> 100 | O=C(O)CNc1ccc2cc(O)c(N3CC(=O)NS3(=O)=O)c(F)c2c1 [Compound 280, {[8-fluoro-6-hydroxy-7-(1,1,4-trioxo-1λ^6,2,5-thiadiazolidin-2-yl)naphthalen-2-yl]amino}acetic acid]
1 to 10 | CNC(=O)CCCOc1ccc2cc(O)c(N3CC(=O)NS3(=O)=O)c(F)c2c1 [Compound 269, 4-{[8-fluoro-6-hydroxy-7-(1,1,4-trioxo-1λ^6,2,5-thiadiazolidin-2-yl)naphthalen-2-yl]oxy}—N-methylbutanamide]
> 100 | O=C1CN(c2c(O)cc3ccc(-c4cccnc4)cc3c2F)S(=O)(=O)N1 [Compound 266, 5-[1-fluoro-3-hydroxy-7-(pyridin-3-yl)naphthalen-2-yl]-1λ^6,2,5-thiadiazolidine-1,1,3-trione]
> 100 | N#C/C=C/c1ccc2cc(O)c(N3CC(=O)NS3(=O)=O)c(F)c2c1 [Compound 208, (2E)-3-[8-fluoro-6-hydroxy-7-(1,1,4-trioxo-1λ^6,2,5-thiadiazolidin-2-yl)naphthalen-2-yl]prop-2-enenitrile]
1 to 10 | CCS(=O)(=O)NCCOc1ccc2cc(O)c(N3CC(=O)NS3(=O)=O)c(F)c2c1 [Compound 311, N-(2-{[8-fluoro-6-hydroxy-7-(1,1,4-trioxo-1λ^6,2,5-thiadiazolidin-2-yl)naphthalen-2-yl]oxy}ethyl)ethanesulfonamide]
10 to 100 | CC1(CCOc2ccc3cc(O)c(N4CC(=O)NS4(=O)=O)c(F)c3c2)CC1 [Compound 193, 5-{1-fluoro-3-hydroxy-7-[2-(1-methylcyclopropyl)ethoxy]naphthalen-2-yl}-1λ^6,2,5-thiadiazolidine-1,1,3-trione]
1 to 10 | COCCCOc1ccc2cc(O)c(N3CC(=O)NS3(=O)=O)c(F)c2c1 [Compound 247, 5-[1-fluoro-3-hydroxy-7-(3-methoxypropoxy)naphthalen-2-yl]-1λ^6,2,5-thiadiazolidine-1,1,3-trione]
> 100 | CCOCCOc1ccc2cc(O)c(N3CC(=O)NS3(=O)=O)c(F)c2c1 [Compound 246, 5-[7-(2-ethoxyethoxy)-1-fluoro-3-hydroxynaphthalen-2-yl]-1λ^6,2,5-thiadiazolidine-1,1,3-trione]
